Data reported in US20200080053A1, “USE OF PEPTIDE COMPOUNDS FOR PROMOTING SURVIVAL, GROWTH AND CELL DIFFERENTIATION” (Axoltis Pharma, priority 2016, published 2020).

Tests used:
[1] = test system: ESCs / neuroepithelial progenitors; experiment: Selection of neuroepithelial progenitors from ESC embryoid bodies, Nestin immunostaining; format: cell-based
Method: For these experiments, the differentiation of ESCs was preferably orientated to the neuronal differentiation pathway, according to the protocol adapted from Okabe et al., (Mechanisms of Development, 59:89-102, 1996).
In brief, to start the differentiation, the ESCs were grown on gelatin without LIF for two days. The cells were carefullly trypsinated to collect small ESC aggregates. Then, these aggregates were transferred on a Petri dish without any coating to produce non-adherent spherical cell bodies, namely the embryoid bodies (EB).
After 5 days of culture, the EB were transferred onto a new Petri dish covered with gelatin to enable cell adhesion.
After 24h of culture, the culture medium with fetal bovine serum 10% was replaced by a culture medium serum free to select neuroepithelial progenitors and the peptide NX210 (SEQ ID NO: 6) was added in the culture medium at a concentration of 0.5 mg/ml.
After 6 days of culture, the maximal content of cells expressing the nestin protein (a cytoskeletal protein specific of the neuroepithelial progenitors) was reached.
The cell population enriched for neuroepithelial progenitors was then trypsinated and seeded at a concentration of 1×10^5 cells/cm^2 on a substrate made up of a polyornithine and laminin mix. […]

[2] = test system: human mesenchymal stem cells (hMSC); experiment: Cell proliferation of hMSCs depending on the culture conditions; format: cell-based; conditions: whatever the conditions / FBS concentration (2% or 10% FBS)
Excerpt: Adult human bone marrow mononuclear cells Ficoll-extracted from two donors were obtained from Lonza. Cells were passaged once a week. The human mesenchymal stem cells (hMSC) were selected by plastic adherence and expanded by plating 50 000 cells/cm^2 in Modified Eagle Medium Alpha (MEMalpha, MacoPharma) supplemented with 10% Fetal Bovine Serum (FBS, PAA Laboratoires) and 0.1% Penicilline/Streptomycine (P/S, Lonza). The culture medium was changed after 3 days and then every day. After 2 to 5 weeks of culture at 37° C. in a humid environment and under 5% CO2, hMSC were harvested by trypsinization. The phenotype was confirmed by FACS analysis (BD Bioscience, BD LSR II) with CD73, CD90 and CD105 (positive), as well as CD34 and CD45 (negative) (Table 1).
To investigate the neural differentiation capacity of the peptides, 25 cm^2 flasks and 12-wells culture plates were coated with sterile aqueous solutions of either NX210 or NS640 at a concentration of 80 μg/cm^2. Coatings were carried out at 37° C. and 5% CO2 over-night prior to cell plating.
On Day 0 (D0), hMSC were seeded at a concentration of 3,000 cells/cm^2 in pre-coated 25 cm^2 flasks or 12-well culture plates in complete medium and culture was placed at 37° C. in a humid environment and under 5% CO2. After 24h, medium was changed and replaced by different combinations of media containing either: MEMalpha—bFGF 12.5 ng/mL—FBS 2%—P/S 0.1%; MEMalpha—bFGF 12.5 ng/mL—FBS 10%—P/S 0.1%; MEMalpha—FBS 2%—P/S 0.1% (control condition); MEMalpha—FBS 10%—P/S 0.1% (control condition). The cells were placed at 37° C. in a humid environment and under 5% CO2, and medium was changed twice a week. […] thus was changed with: MEMalpha—ATRA […]—FBS 2%—P/S 0.1%; MEMalpha—ATRA 20 μM—FBS 10%—P/S 0.1%; MEMalpha—FBS 2%—P/S 0.1% (control condition); MEMalpha—FBS 10%—P/S 0.1% (control condition). The cells were placed at 37° C. in a humid environment and under 5% CO2. Medium was changed twice a week. On Day 15 (D15), cells were harvested by trypsinization for mRNA extraction or fixed immunocytochemical analysis.

## W-S-G-W-S-S-C-S-R-S-C-G (WSGWSSCSRSCG) [NX210]
[1]; 0.5 mg/ml NX210 in serum free medium, then 2 days with FGF2, compared to untreated culture
  cells expressing the Nestin protein (neuronal precursors): More cells expressing the Nestin protein
[1]; during selection of the neuroepithelial progenitors
  response to the specific stimulation by FGF2: promotes a more efficient response
[2]
  effect on cell proliferation (number of MSCs): no effect
